Experimental data taken from patent US11186577B2, “Vasopressin receptor antagonists and products and methods related thereto” (BlackThorn Therapeutics, Inc., priority 2017, dated 2021).
Where two headings read alike, the source gives them in different places.

What was measured:
Assay type in all cases: in vitro ADME
MDR1-MDCK cells = assay: MDR1-MDCK effective efflux assay (Transwell, 10 μM, 1 hour), MDR1-MDCK cells; conditions: for Papp AB MDR1: MDR1-MDCK cells, apical to basolateral (A>B), 10 μM, 1 hour; for MDR1 EER / MDR1 ER: MDCK-MDR1
Outline: (§1)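 Wild-type and MDR1-MDCK monolayers cultured 3 days were dosed with compound at 10 μM (0.1% DMSO) in HBSS/25 mM HEPES pH 7.4, in both A>B and B>A directions, for 1 h at 37 °C. Samples were quantified by LC-MS/MS to give Papp and efflux ratio. Effective efflux ratio = ER(MDR1-MDCK)/ER(wild-type); Lucifer Yellow checked monolayer integrity.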

[1] = test system: wild-type (WT) MDCK cells; assay: MDR1-MDCK effective efflux assay (Transwell, 10 μM, 1 hour), wild-type MDCK cells; conditions: for Papp AB WT: wild-type MDCK cells, apical to basolateral (A>B), 10 μM, 1 hour; for WT ER: MDCK
Outline: as §1

MDR1 (P-glycoprotein) = assay: MDR1-MDCK effective efflux assay (Transwell, 10 μM, 1 hour), MDR1-MDCK cells; conditions: dog
Outline: as §1

[2] = MDR1-MDCK effective efflux assay (Transwell, 10 μM, 1 hour), wild-type MDCK cells; conditions: dog, MDCK
Outline: as §1

[3] = MDCK-MDR1, pH 7.4, Papp AB MDR1
[4] = MDCK-MDR1, pH 7.4, MDR1-MDCK cells, apical to basolateral (A>B), 10 μM, 1 hour, read-out: Papp AB MDR1
[5] = pH 7.4, wild-type MDCK cells, apical to basolateral (A>B), 10 μM, 1 hour, read-out: Papp AB WT

**Q.** Which “Papp AB MDR1” value (MDR1-MDCK cells) does the source give for `CC1c2nnc(C3CC4(C3)CN(c3ccccn3)C4)n2-c2ccc(Cl)cc2CN1C(=O)C1(F)CC1` (single isomer, unassigned) [Cpd 181A] here?
**A.** ++++ ((++++) denotes >20 (10^-6 cm/sec))

**Q.** And the “Papp AB WT” value [1]?
**A.** ++++ ((++++) denotes >20 (10^-6 cm/sec))

**Q.** Which “Papp AB MDR1” value (MDR1-MDCK cells) does the source give for `CC1c2nnc(C3CC4(C3)CN(c3ccc(F)cn3)C4)n2-c2ccc(Cl)cc2CN1C(=O)C1(F)CC1` (single isomer, unassigned) [Cpd 174A] here?
**A.** ++++ ((++++) denotes >20 (10^-6 cm/sec))

**Q.** And the “Papp AB WT” value [1]?
**A.** ++++ ((++++) denotes >20 (10^-6 cm/sec))

**Q.** For `CC(C)OC(=O)N1Cc2cc(Cl)ccc2-n2c(C3CC4(C3)CN(c3ncccn3)C4)nnc2C1C` (stereo not shown) [compound 167], which “MDR1 EER” value (MDR1-MDCK cells) is on record?
**A.** +++

**Q.** What about the “MDR1 ER” value (MDR1-MDCK cells) of the same compound?
**A.** +++

**Q.** And the Papp A→B at 1 h, 10 μM (MDR1 (P-glycoprotein); [3])?
**A.** > 20 ×10⁻⁶ cm/s

**Q.** And the Papp A→B at 1 h, 10 μM ([2]; pH 7.4, Papp AB WT)?
**A.** > 20 ×10⁻⁶ cm/s

**Q.** What about the “WT ER” value [1] of the same compound?
**A.** +++

**Q.** For `CCOC(=O)N1Cc2cc(Cl)ccc2-n2c(C3CC4(C3)CN(c3ncccn3)C4)nnc2C1C` (single isomer, unassigned) [Cpd 168A], which “Papp AB MDR1” value (MDR1-MDCK cells) is on record?
**A.** ++++ ((++++) denotes >20 (10^-6 cm/sec))

**Q.** What about the “Papp AB WT” value [1] of the same compound?
**A.** ++++ ((++++) denotes >20 (10^-6 cm/sec))

**Q.** For `CC(=O)N1Cc2cc(Cl)ccc2-n2c(nnc2C2CC3(C2)CN(c2ccc(F)cn2)C3)C1` [compound 64], which Papp A→B at 1 h, 10 μM (MDR1 (P-glycoprotein); [4]) is on record?
**A.** < 7 ×10⁻⁶ cm/s

**Q.** And the Papp A→B at 1 h, 10 μM [2, 5]?
**A.** 10 to 20 ×10⁻⁶ cm/s

**Q.** Which Papp A→B at 1 h, 10 μM (MDR1 (P-glycoprotein); [4]) does the source give for `CC1c2nnc(C3CC4(C3)CN(c3ncc(F)cn3)C4)n2-c2ccc(Cl)cc2CN1C(=O)OC1(C)CC1` (stereo not shown) [compound 173] here?
**A.** > 20 ×10⁻⁶ cm/s

**Q.** And the Papp A→B at 1 h, 10 μM [2, 5]?
**A.** > 20 ×10⁻⁶ cm/s

**Q.** With `CCOC(=O)N1Cc2cc(Cl)ccc2-n2c(C3CC4(C3)CN(c3ncccn3)C4)nnc2C1C` (stereo not shown) [compound 168] as the compound, how does the “MDR1 EER” value (MDR1-MDCK cells) read?
**A.** +

**Q.** And the “MDR1 ER” value (MDR1-MDCK cells)?
**A.** +

**Q.** What about the Papp A→B at 1 h, 10 μM (MDR1 (P-glycoprotein); [3]) of the same compound?
**A.** 7 to 10 ×10⁻⁶ cm/s

**Q.** And the Papp A→B at 1 h, 10 μM ([2]; pH 7.4, Papp AB WT)?
**A.** > 20 ×10⁻⁶ cm/s

**Q.** What about the “WT ER” value [1] of the same compound?
**A.** +++

**Q.** Which results are given for `COC(=O)N1Cc2cc(Cl)ccc2-n2c(C3CC4(C3)CN(c3cnccn3)C4)nnc2C1C` (stereo not shown) [compound 165]?
**A.** Papp A→B at 1 h, 10 μM (MDR1 (P-glycoprotein); [4]): 7 to 10 ×10⁻⁶ cm/s; Papp A→B at 1 h, 10 μM [2, 5]: > 20 ×10⁻⁶ cm/s

**Q.** With `CC(C)OC(=O)N1Cc2cc(Cl)ccc2-n2c(C3CC4(C3)CN(c3ncc(F)cn3)C4)nnc2C1C` (single isomer, unassigned) [Cpd 201A] as the compound, how does the “Papp AB MDR1” value (MDR1-MDCK cells) read?
**A.** ++++ ((++++) denotes >20 (10^-6 cm/sec))

**Q.** What about the “Papp AB WT” value [1] of the same compound?
**A.** ++++ ((++++) denotes >20 (10^-6 cm/sec))

**Q.** Which “Papp AB MDR1” value (MDR1-MDCK cells) does the source give for `CC1c2nnc(C3CC4(C3)CN(c3ncc(F)cn3)C4)n2-c2ccc(Cl)cc2CN1C(=O)OC1CC1` (single isomer, unassigned) [Cpd 192A] here?
**A.** ++++ ((++++) denotes >20 (10^-6 cm/sec))

**Q.** What about the “Papp AB WT” value [1] of the same compound?
**A.** ++++ ((++++) denotes >20 (10^-6 cm/sec))

**Q.** With `COC(=O)N1Cc2cc(Cl)ccc2-n2c(nnc2C2CC3(C2)CN(c2ccccn2)C3)C1` [compound 70] as the compound, how does the Papp A→B at 1 h, 10 μM (MDR1 (P-glycoprotein); [4]) read?
**A.** 10 to 20 ×10⁻⁶ cm/s

**Q.** What about the Papp A→B at 1 h, 10 μM [2, 5] of the same compound?
**A.** > 20 ×10⁻⁶ cm/s

**Q.** With `CCOC(=O)N1Cc2cc(Cl)ccc2-n2c(C3CC4(C3)CN(c3ccc(F)cn3)C4)nnc2C1C` (single isomer, unassigned) [Cpd 169A] as the compound, how does the “Papp AB MDR1” value (MDR1-MDCK cells) read?
**A.** ++++ ((++++) denotes >20 (10^-6 cm/sec))

**Q.** And the “Papp AB WT” value [1]?
**A.** ++++ ((++++) denotes >20 (10^-6 cm/sec))

**Q.** Which “Papp AB MDR1” value (MDR1-MDCK cells) does the source give for `CC(C)OC(=O)N1Cc2cc(Cl)ccc2-n2c(C3CC4(C3)CN(c3ncccn3)C4)nnc2C1C` (single isomer, unassigned) [Cpd 167A] here?
**A.** ++++ ((++++) denotes >20 (10^-6 cm/sec))

**Q.** What about the “Papp AB WT” value [1] of the same compound?
**A.** ++++ ((++++) denotes >20 (10^-6 cm/sec))

**Q.** With `FCCN1Cc2cc(Cl)ccc2-n2c(nnc2C2CC3(C2)CN(c2ccccn2)C3)C1` [compound 59] as the compound, how does the Papp A→B at 1 h, 10 μM (MDR1 (P-glycoprotein); [4]) read?
**A.** 7 to 10 ×10⁻⁶ cm/s

**Q.** And the Papp A→B at 1 h, 10 μM [2, 5]?
**A.** > 20 ×10⁻⁶ cm/s

**Q.** What does the source list for `CCOC(=O)N1Cc2cc(Cl)ccc2-n2c(nnc2C2CC3(C2)CN(c2ccc(F)cn2)C3)C1` [compound 69]?
**A.** Papp A→B at 1 h, 10 μM (MDR1 (P-glycoprotein); [4]): > 20 ×10⁻⁶ cm/s; Papp A→B at 1 h, 10 μM [2, 5]: > 20 ×10⁻⁶ cm/s

**Q.** With `CC(C)C(=O)N1Cc2cc(Cl)ccc2-n2c(nnc2C2CC3(C2)CN(c2ccc(F)cn2)C3)C1` [compound 63] as the compound, how does the Papp A→B at 1 h, 10 μM (MDR1 (P-glycoprotein); [4]) read?
**A.** < 7 ×10⁻⁶ cm/s

**Q.** What about the Papp A→B at 1 h, 10 μM [2, 5] of the same compound?
**A.** > 20 ×10⁻⁶ cm/s

**Q.** With `CCC(=O)N1Cc2cc(Cl)ccc2-n2c(nnc2C2CC3(C2)CN(c2ccc(F)cn2)C3)C1` [compound 72] as the compound, how does the Papp A→B at 1 h, 10 μM (MDR1 (P-glycoprotein); [4]) read?
**A.** < 7 ×10⁻⁶ cm/s

**Q.** And the Papp A→B at 1 h, 10 μM [2, 5]?
**A.** > 20 ×10⁻⁶ cm/s

**Q.** With `O=C(OC1CC1)N1Cc2cc(Cl)ccc2-n2c(nnc2C2CC3(C2)CN(c2ccc(F)cn2)C3)C1` [compound 90] as the compound, how does the Papp A→B at 1 h, 10 μM (MDR1 (P-glycoprotein); [4]) read?
**A.** > 20 ×10⁻⁶ cm/s

**Q.** What about the Papp A→B at 1 h, 10 μM [2, 5] of the same compound?
**A.** > 20 ×10⁻⁶ cm/s

**Q.** For `COC(=O)N1Cc2cc(Cl)ccc2-n2c(nnc2C2CC3(C2)CN(c2ccc(F)cn2)C3)C1` [compound 61], which Papp A→B at 1 h, 10 μM (MDR1 (P-glycoprotein); [4]) is on record?
**A.** 10 to 20 ×10⁻⁶ cm/s

**Q.** And the Papp A→B at 1 h, 10 μM [2, 5]?
**A.** > 20 ×10⁻⁶ cm/s

**Q.** With `COC(=O)N1Cc2cc(Cl)ccc2-n2c(C3CC4(C3)CN(c3cccc(C)n3)C4)nnc2C1C` (stereo not shown) [compound 180] as the compound, how does the Papp A→B at 1 h, 10 μM (MDR1 (P-glycoprotein); [4]) read?
**A.** > 20 ×10⁻⁶ cm/s

**Q.** And the Papp A→B at 1 h, 10 μM [2, 5]?
**A.** > 20 ×10⁻⁶ cm/s
